Our source for the Activity values is ChEMBL document CHEMBL2169745, “Photoinduced DNA cleavage by anthracene based hydroxamic acids” (Bioorg Med Chem Lett, 2012).

Type in all cases: nucleic-acid assay
For assay [1], the system named is Nucleic Acid. Briefly: Induction of DNA cleavage in Escherichia coli pBR322 DNA assessed as formation of relaxed circular DNA at 100 uM treated for 1 hr using ethidium bromide staining by agarose gel electrophoresis analysis in presence of UV light. Also noted: scale not given: the % may be the effect or the level left.
Assay [2] deals with Nucleic Acid. Nature of the assay: Induction of DNA cleavage in Escherichia coli pBR322 DNA assessed as formation of relaxed circular DNA at 50 uM treated for 1 hr using ethidium bromide staining by agarose gel electrophoresis analysis in presence of UV light. More on the design: scale not given: the % may be the effect or the level left.
For assay [3], the system named is Nucleic Acid. Nature of the assay: Induction of DNA cleavage in Escherichia coli pBR322 DNA assessed as formation of relaxed circular DNA at 25 uM treated for 1 hr using ethidium bromide staining by agarose gel electrophoresis analysis in presence of UV light. Also noted: scale not given: the % may be the effect or the level left.
For assay [4], the system named is Nucleic Acid. Briefly: Induction of DNA cleavage in Escherichia coli pBR322 DNA assessed as formation of relaxed circular DNA at 100 uM treated for 1 hr using ethidium bromide staining by agarose gel electrophoresis analysis in presence of UV light and 300 mM of NaN3. Also noted: scale not given: the % may be the effect or the level left.
Assay [5] has as its system Nucleic Acid. Nature of the assay: Induction of DNA cleavage in Escherichia coli pBR322 DNA assessed as formation of relaxed circular DNA at 10 uM treated for 1 hr using ethidium bromide staining by agarose gel electrophoresis analysis in presence of UV light. Also noted: scale not given: the % may be the effect or the level left.
The test system of assay [6] is Nucleic Acid. Briefly: Induction of DNA cleavage in Escherichia coli pBR322 DNA assessed as formation of relaxed circular DNA at 100 uM treated for 1 hr using ethidium bromide staining by agarose gel electrophoresis analysis in presence of UV light and 20 mM of NaN3. More on the design: scale not given: the % may be the effect or the level left.
The test system of assay [7] is Nucleic Acid. Nature of the assay: Induction of DNA cleavage in Escherichia coli pBR322 DNA assessed as formation of relaxed circular DNA at 100 uM treated for 1 hr using ethidium bromide staining by agarose gel electrophoresis analysis in presence of UV light and 75 mM of NaN3. Also noted: scale not given: the % may be the effect or the level left.
Assay [8] relates to Nucleic Acid. Nature of the assay: Induction of DNA cleavage in Escherichia coli pBR322 DNA assessed as formation of relaxed circular DNA at 100 uM treated for 1 hr using ethidium bromide staining by agarose gel electrophoresis analysis in presence of bubbling with Ar gas. Also noted: scale not given: the % may be the effect or the level left.
In assay [9] the test system is Nucleic Acid. Briefly: Induction of DNA cleavage in Escherichia coli pBR322 DNA assessed as formation of relaxed circular DNA treated for 1 hr using ethidium bromide staining by agarose gel electrophoresis analysis in presence of UV light.
Assay [10] relates to Nucleic Acid. Briefly: Induction of DNA cleavage in Escherichia coli pBR322 DNA assessed as formation of relaxed circular DNA at 100 uM treated for 1 hr using ethidium bromide staining by agarose gel electrophoresis analysis in presence of UV light and DMSO. More on the design: scale not given: the % may be the effect or the level left.
Assay [11] deals with Nucleic Acid. Nature of the assay: Induction of DNA cleavage in Escherichia coli pBR322 DNA assessed as formation of relaxed circular DNA at 100 uM treated for 1 hr using ethidium bromide staining by agarose gel electrophoresis analysis in presence of UV light and 40 mM of NaN3. More on the design: scale not given: the % may be the effect or the level left.
Assay [12] has as its system Nucleic Acid. Nature of the assay: Induction of DNA cleavage in Escherichia coli pBR322 DNA assessed as formation of relaxed circular DNA at 100 uM treated for 1 hr using ethidium bromide staining by agarose gel electrophoresis analysis in presence of UV light and ascorbic acid. Also noted: scale not given: the % may be the effect or the level left.
In assay [13] the test system is Nucleic Acid. Nature of the assay: Induction of DNA cleavage in Escherichia coli pBR322 DNA assessed as formation of relaxed circular DNA at 40 uM treated for 1 hr using ethidium bromide staining by agarose gel electrophoresis analysis in presence of UV light. Also noted: scale not given: the % may be the effect or the level left.
The subject of assay [14] is Nucleic Acid. Briefly: Induction of DNA cleavage in Escherichia coli pBR322 DNA assessed as formation of relaxed circular DNA at 100 uM treated for 1 hr using ethidium bromide staining by agarose gel electrophoresis analysis in presence of UV light and DABCO. More on the design: scale not given: the % may be the effect or the level left.
Assay [15] deals with Nucleic Acid. Briefly: Induction of DNA cleavage in Escherichia coli pBR322 DNA assessed as formation of relaxed circular DNA at 100 uM treated for 1 hr using ethidium bromide staining by agarose gel electrophoresis analysis in presence of UV light and 150 mM of NaN3. More on the design: scale not given: the % may be the effect or the level left.
The subject of assay [16] is Nucleic Acid. Briefly: Induction of DNA cleavage in Escherichia coli pBR322 DNA assessed as formation of relaxed circular DNA at 100 uM treated for 1 hr using ethidium bromide staining by agarose gel electrophoresis analysis in presence of bubbling with O2 gas. More on the design: scale not given: the % may be the effect or the level left.
Assay [17] deals with Nucleic Acid. Briefly: Induction of DNA cleavage in Escherichia coli pBR322 DNA assessed as formation of relaxed circular DNA at 100 uM treated for 1 hr using ethidium bromide staining by agarose gel electrophoresis analysis in presence of UV light and 600 mM of NaN3. More on the design: scale not given: the % may be the effect or the level left.
In assay [18] the test system is Nucleic Acid. Briefly: Induction of DNA cleavage in Escherichia coli pBR322 DNA assessed as formation of relaxed circular DNA at 100 uM treated for 1 hr using ethidium bromide staining by agarose gel electrophoresis analysis in presence of UV light and D2O. More on the design: scale not given: the % may be the effect or the level left.
The subject of assay [19] is Nucleic Acid. Nature of the assay: Induction of DNA cleavage in Escherichia coli pBR322 DNA assessed as formation of relaxed circular DNA at 75 uM treated for 1 hr using ethidium bromide staining by agarose gel electrophoresis analysis in presence of UV light. More on the design: scale not given: the % may be the effect or the level left.

Turning to `O=C(NO)C(NCc1c2ccccc2cc2ccccc12)c1ccccc1` (stereo not drawn), the Activity with Nucleic Acid [1] was 98%.
Still for that read-out and setting: with `O=C(NO)C(Cc1c[nH]c2ccccc12)NCc1c2ccccc2cc2ccccc12` (stereo not drawn) the figure was 91%.
Still for that read-out and setting: then `O=C(/C=C/c1cccc2ccccc12)NC(Cc1ccccc1)C(=O)NO` (stereo not drawn), with 15%; and `O=C(NO)C(Cc1ccccc1)NCc1cccc2ccccc12` (stereo not drawn), with 16%; and `O=C(/C=C/c1c2ccccc2cc2ccccc12)NC(Cc1ccccc1)C(=O)O` (stereo not drawn), with 35%.
For the compound `O=C(NO)C(Cc1ccccc1)NCc1c2ccccc2cc2ccccc12` (stereo not drawn), the Activity in the assay with Nucleic Acid [2] stood at 25%; in the assay on Nucleic Acid [3], 4%; in the assay with Nucleic Acid [1], 97%; in the assay on Nucleic Acid [4], 62%; with Nucleic Acid [5] it was 2%; in the assay with Nucleic Acid [6], 97%. Moreover, the Activity was 77% in the assay with Nucleic Acid [7]; 75% with Nucleic Acid [8]; “Dose-dependent effect” with Nucleic Acid [9]; 54% in the assay with Nucleic Acid [10]; 86% with Nucleic Acid [11]; 37% in the assay on Nucleic Acid [12]. Besides, the Activity in the assay with Nucleic Acid [13] was 10%; in the assay on Nucleic Acid [14], 74%; with Nucleic Acid [15] it was 63%; in the assay on Nucleic Acid [16] it was 100%; in the assay with Nucleic Acid [17], 62%; with Nucleic Acid [18], 100%. Further, in the assay with Nucleic Acid [19], the Activity was found to be 67%.
As for `O=C(O)C(Cc1ccccc1)NCc1c2ccccc2cc2ccccc12` (stereo not drawn), the Activity with Nucleic Acid [1] was 60%.
The same measure, in the same setting: with `O=C(/C=C/c1c2ccccc2cc2ccccc12)NC(C(=O)NO)c1ccccc1` (stereo not drawn) the figure was 99%; with `O=C(/C=C/c1c2ccccc2cc2ccccc12)NC(Cc1c[nH]c2ccccc12)C(=O)NO` (stereo not drawn), 89%.
As for `O=C(/C=C/c1c2ccccc2cc2ccccc12)NC(Cc1ccccc1)C(=O)NO` (stereo not drawn), the Activity in the assay on Nucleic Acid [1] stood at 98%.
